Data reported in patent US6706663B2, “Herbicidal 3-heterocyclic substituted benzisothiazole and benzisoxazole compounds” (Wyeth, priority 2000, dated 2004).

How the values were obtained:
[1] = system: ABUTH (Abutilon theophrasti); assay: Postemergence herbicidal evaluation; assay type: in vivo, Medic.; conditions: postemergence
In short: (§1)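 Seedlings grown about two weeks in flats, sprayed, then kept under standard greenhouse care. Rated visually 4–5 weeks after treatment on a 0–9 scale (stand, vigour, malformation, size, chlorosis, overall appearance) relative to untreated control; repeat tests averaged.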

[2] = system: AMBEL (Ambrosia artemisifolia); assay: Postemergence herbicidal evaluation; assay type: in vivo, L.; conditions: postemergence
In short: as §1

[3] = system: CASOB (Cassia obtusifolia); assay: Postemergence herbicidal evaluation; assay type: in vivo, L.; conditions: postemergence
In short: as §1

[4] = system: CHEAL (Chenopodium album); assay: Postemergence herbicidal evaluation; assay type: in vivo, L.; conditions: postemergence
In short: as §1

[5] = system: GALAP (Galium aparine); assay: Postemergence herbicidal evaluation; assay type: in vivo; conditions: postemergence
In short: as §1

[6] = system: IPOHE (Ipomoea hederacea); assay: Postemergence herbicidal evaluation; assay type: in vivo, (L.) Jacq.; conditions: postemergence
In short: as §1

[7] = system: ECHCG (Echinochloa crus-galli); assay: Postemergence herbicidal evaluation; assay type: in vivo, (L.) Beau; conditions: postemergence
In short: as §1

[8] = system: GLXMAW (Soybean, Williams); assay: Postemergence herbicidal evaluation; assay type: in vivo, Glycine max, (L.) Merr. cv Williams; conditions: postemergence
In short: as §1

[9] = system: ZEAMX (Corn, Field); assay: Postemergence herbicidal evaluation; assay type: in vivo, Zea mays, L.; conditions: postemergence
In short: as §1

[10] = system: AMBEL (Ambrosia artemisifolia); assay: Preemergence herbicidal evaluation; assay type: in vivo, L.; conditions: rated 4-5 weeks after treatment
In short: (§2)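 Visual 0–9 rating versus control (stand, vigor, malformation, size, chlorosis, overall appearance), scored four to five weeks post-treatment. Preemergence spray of aqueous acetone solution onto freshly seeded soil cups; plants grown under conventional greenhouse care.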

[11] = system: CASOB (Cassia obtusifolia); assay: Preemergence herbicidal evaluation; assay type: in vivo, L.; conditions: rated 4-5 weeks after treatment
In short: as §2

[12] = system: CHEAL (Chenopodium album); assay: Preemergence herbicidal evaluation; assay type: in vivo, L.; conditions: rated 4-5 weeks after treatment
In short: as §2

[13] = system: IPOHE (Ipomoea hederacea); assay: Preemergence herbicidal evaluation; assay type: in vivo, (L.) Jacq.; conditions: rated 4-5 weeks after treatment
[14] = system: GLXMAW (Soybean, Williams); assay: Preemergence herbicidal evaluation; assay type: in vivo, Glycine max, (L.) Merr. cv Williams; conditions: rated 4-5 weeks after treatment
[15] = system: ORYSAT (Rice, Tebonnet); assay: Preemergence herbicidal evaluation; assay type: in vivo, Oryza sativa, (L.) Tebonnet; conditions: rated 4-5 weeks after treatment
[16] = system: TRZAWR (Wheat, Winter, cv Riband); assay: Preemergence herbicidal evaluation; assay type: in vivo, Triticum aestivum; conditions: rated 4-5 weeks after treatment
In short: as §2

[17] = system: ZEAMX (Corn, Field); assay: Preemergence herbicidal evaluation; assay type: in vivo, Zea mays, L.; conditions: rated 4-5 weeks after treatment
[18] = system: ECHORC (Echinochloa oryzoides); assay: Flooded paddy, preemergence weed control; assay type: in vivo, Echinochloa oryzoides (Ard.) Fritsch.; conditions: rated 3-4 weeks after treatment, 0-9 rating scale
In short: (§3)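 Ratings of 0-9 reflect visual comparison with a control for stand, vigor, deformity, size, chlorosis and overall look. Propagules were placed in shallow silt loam (top 0.5 cm) under a continuous 1.5–3 cm flood and grown in the greenhouse.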

[19] = system: CYPIR (Cyperus iria); assay: Flooded paddy, preemergence weed control; assay type: in vivo; conditions: rated 3-4 weeks after treatment, 0-9 rating scale
In short: as §3

[20] = system: CYPSE (Cyperus serotinus); assay: Flooded paddy, preemergence weed control; assay type: in vivo, Rottb.; conditions: rated 3-4 weeks after treatment, 0-9 rating scale
In short: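 Herbicidal effect was scored visually on a 0–9 scale against an untreated control 3–4 weeks after treatment. Compounds were applied preemergence as 50/50 v/v aqueous/acetone mixtures into flood water (1.5–3 cm deep over silt loam), at roughly 0.0080 to 0.1250 kg/ha active ingredient.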

[21] = system: SAGPY (Sagittaria pygmaea); assay: Flooded paddy, preemergence weed control; assay type: in vivo, L.; conditions: rated 3-4 weeks after treatment, 0-9 rating scale
In short: as §3

Q: With `Cn1c(C(F)(F)F)cc(=O)n(-c2ccc3snc(C4(C)OCCO4)c3c2)c1=O` [Compound 54, 1-methyl-3-[3-(2-methyl-1,3-dioxolan-2-yl)-1,2-benzisothiazol-5-yl]-6-(trifluoromethyl)uracil] as the molecule, how does the ABUTH herbicidal rating ([1]; rate 0.0320 kg/ha) read?
A: The ABUTH herbicidal rating was 9.0.

Q: What about the ABUTH herbicidal rating ([1]; rate 0.0620 kg/ha) of the same molecule?
A: Its ABUTH herbicidal rating is 9.0.

Q: And the ABUTH herbicidal rating ([1]; rate 0.1250 kg/ha)?
A: The ABUTH herbicidal rating was 9.0.

Q: And the AMBEL herbicidal rating ([2]; rate 0.0320 kg/ha)?
A: The AMBEL herbicidal rating was 9.0.

Q: What about the AMBEL herbicidal rating ([2]; rate 0.0620 kg/ha) of the same molecule?
A: Its AMBEL herbicidal rating is 9.0.

Q: And the AMBEL herbicidal rating ([2]; rate 0.1250 kg/ha)?
A: Its AMBEL herbicidal rating is 9.0.

Q: And the CASOB herbicidal rating ([3]; rate 0.0320 kg/ha)?
A: Its CASOB herbicidal rating is 2.0.

Q: What about the CASOB herbicidal rating ([3]; rate 0.0620 kg/ha) of the same molecule?
A: Its CASOB herbicidal rating is 9.0.

Q: And the CASOB herbicidal rating ([3]; rate 0.1250 kg/ha)?
A: The CASOB herbicidal rating was 9.0.

Q: And the CHEAL herbicidal rating ([4]; rate 0.0320 kg/ha)?
A: The CHEAL herbicidal rating was 5.0.

Q: What about the CHEAL herbicidal rating ([4]; rate 0.0620 kg/ha) of the same molecule?
A: The CHEAL herbicidal rating was 9.0.

Q: What about the CHEAL herbicidal rating ([4]; rate 0.1250 kg/ha) of the same molecule?
A: Its CHEAL herbicidal rating is 9.0.

Q: What about the GALAP herbicidal rating ([5]; rate 0.0320 kg/ha) of the same molecule?
A: The GALAP herbicidal rating was 5.0.

Q: What about the GALAP herbicidal rating ([5]; rate 0.0620 kg/ha) of the same molecule?
A: Its GALAP herbicidal rating is 9.0.

Q: And the GALAP herbicidal rating ([5]; rate 0.1250 kg/ha)?
A: Its GALAP herbicidal rating is 9.0.

Q: And the IPOHE herbicidal rating ([6]; rate 0.0320 kg/ha)?
A: The IPOHE herbicidal rating was 9.0.

Q: What about the IPOHE herbicidal rating ([6]; rate 0.0620 kg/ha) of the same molecule?
A: Its IPOHE herbicidal rating is 9.0.

Q: And the IPOHE herbicidal rating ([6]; rate 0.1250 kg/ha)?
A: The IPOHE herbicidal rating was 9.0.

Q: And the ECHCG herbicidal rating ([7]; rate 0.0320 kg/ha)?
A: The ECHCG herbicidal rating was 1.0.

Q: And the ECHCG herbicidal rating ([7]; rate 0.0620 kg/ha)?
A: The ECHCG herbicidal rating was 3.0.

Q: And the ECHCG herbicidal rating ([7]; rate 0.1250 kg/ha)?
A: The ECHCG herbicidal rating was 3.0.

Q: What about the GLXMAW herbicidal rating ([8]; rate 0.0320 kg/ha) of the same molecule?
A: Its GLXMAW herbicidal rating is 8.0.

Q: What about the GLXMAW herbicidal rating ([8]; rate 0.0620 kg/ha) of the same molecule?
A: The GLXMAW herbicidal rating was 8.5.

Q: And the GLXMAW herbicidal rating ([8]; rate 0.1250 kg/ha)?
A: The GLXMAW herbicidal rating was 9.0.

Q: And the ZEAMX herbicidal rating ([9]; rate 0.0320 kg/ha)?
A: Its ZEAMX herbicidal rating is 4.0.

Q: And the ZEAMX herbicidal rating ([9]; rate 0.0620 kg/ha)?
A: Its ZEAMX herbicidal rating is 4.0.

Q: What about the ZEAMX herbicidal rating ([9]; rate 0.1250 kg/ha) of the same molecule?
A: The ZEAMX herbicidal rating was 5.5.

Q: What about the “Preemergence herbicidal rating AMBEL” value ([10]; Rate 0.0620 kg/ha) of the same molecule?
A: Its value is 9.0.

Q: And the “Preemergence herbicidal rating AMBEL” value ([10]; Rate 0.1250 kg/ha)?
A: Its value is 9.0.

Q: And the “Preemergence herbicidal rating AMBEL” value ([10]; Rate 0.2500 kg/ha)?
A: The value was 9.0.

Q: And the “Preemergence herbicidal rating CASOB” value ([11]; Rate 0.0620 kg/ha)?
A: Its value is 9.0.

Q: What about the “Preemergence herbicidal rating CASOB” value ([11]; Rate 0.1250 kg/ha) of the same molecule?
A: Its value is 9.0.

Q: What about the “Preemergence herbicidal rating CASOB” value ([11]; Rate 0.2500 kg/ha) of the same molecule?
A: The value was 9.0.

Q: And the “Preemergence herbicidal rating CHEAL” value ([12]; Rate 0.0620 kg/ha)?
A: Its value is 9.0.

Q: And the “Preemergence herbicidal rating CHEAL” value ([12]; Rate 0.1250 kg/ha)?
A: The value was 9.0.

Q: What about the “Preemergence herbicidal rating CHEAL” value ([12]; Rate 0.2500 kg/ha) of the same molecule?
A: The value was 9.0.

Q: What about the “Preemergence herbicidal rating IPOHE” value ([13]; Rate 0.0620 kg/ha) of the same molecule?
A: The value was 9.0.

Q: And the “Preemergence herbicidal rating IPOHE” value ([13]; Rate 0.1250 kg/ha)?
A: Its value is 9.0.

Q: What about the “Preemergence herbicidal rating IPOHE” value ([13]; Rate 0.2500 kg/ha) of the same molecule?
A: Its value is 9.0.

Q: And the “Preemergence herbicidal rating GLXMAW” value ([14]; Rate 0.0620 kg/ha)?
A: Its value is 9.0.

Q: And the “Preemergence herbicidal rating GLXMAW” value ([14]; Rate 0.1250 kg/ha)?
A: Its value is 9.0.

Q: What about the “Preemergence herbicidal rating GLXMAW” value ([14]; Rate 0.2500 kg/ha) of the same molecule?
A: Its value is 9.0.

Q: What about the “Preemergence herbicidal rating ORYSAT” value ([15]; Rate 0.0620 kg/ha) of the same molecule?
A: Its value is 9.0.

Q: What about the “Preemergence herbicidal rating ORYSAT” value ([15]; Rate 0.1250 kg/ha) of the same molecule?
A: The value was 9.0.

Q: What about the “Preemergence herbicidal rating ORYSAT” value ([15]; Rate 0.2500 kg/ha) of the same molecule?
A: The value was 9.0.

Q: What about the “Preemergence herbicidal rating TRZAWR” value ([16]; Rate 0.0620 kg/ha) of the same molecule?
A: Its value is 9.0.

Q: And the “Preemergence herbicidal rating TRZAWR” value ([16]; Rate 0.1250 kg/ha)?
A: Its value is 9.0.

Q: What about the “Preemergence herbicidal rating TRZAWR” value ([16]; Rate 0.2500 kg/ha) of the same molecule?
A: The value was 9.0.

Q: What about the “Preemergence herbicidal rating ZEAMX” value ([17]; Rate 0.0620 kg/ha) of the same molecule?
A: Its value is 8.0.

Q: What about the “Preemergence herbicidal rating ZEAMX” value ([17]; Rate 0.1250 kg/ha) of the same molecule?
A: The value was 8.5.

Q: And the “Preemergence herbicidal rating ZEAMX” value ([17]; Rate 0.2500 kg/ha)?
A: Its value is 9.0.

Q: What about the “herbicidal rating, ECHORC” value ([18]; rate 0.0080 kg/ha) of the same molecule?
A: The value was 8.0.

Q: What about the “herbicidal rating, ECHORC” value ([18]; rate 0.0320 kg/ha) of the same molecule?
A: The value was 8.0.

Q: What about the “herbicidal rating, ECHORC” value ([18]; rate 0.1250 kg/ha) of the same molecule?
A: The value was 9.0.

Q: What about the “herbicidal rating, CYPIR” value ([19]; rate 0.0080 kg/ha) of the same molecule?
A: The value was 0.0.

Q: And the “herbicidal rating, CYPIR” value ([19]; rate 0.0320 kg/ha)?
A: Its value is 7.5.

Q: And the “herbicidal rating, CYPIR” value ([19]; rate 0.1250 kg/ha)?
A: The value was 9.0.

Q: And the “herbicidal rating, CYPSE” value ([20]; rate 0.0320 kg/ha)?
A: The value was 9.0.

Q: And the “herbicidal rating, CYPSE” value ([20]; rate 0.1250 kg/ha)?
A: The value was 9.0.

Q: What about the “herbicidal rating, SAGPY” value ([21]; rate 0.0080 kg/ha) of the same molecule?
A: Its value is 0.0.

Q: What about the “herbicidal rating, SAGPY” value ([21]; rate 0.0320 kg/ha) of the same molecule?
A: The value was 7.0.

Q: What about the “herbicidal rating, SAGPY” value ([21]; rate 0.1250 kg/ha) of the same molecule?
A: The value was 9.0.
